According to patent US12485106B2, “Methods of treating fibrotic liver diseases or conditions with indeglitazar” (PLEIOGENIX INC., priority 2023, dated 2025):

Tests used:
NASH = conditions: human, in vivo; cited from earlier work
alcoholic hepatitis = conditions: human, in vivo; cited from earlier work
[1] = system: mouse model of human alcoholic hepatitis; test: AH (NIAAA) mouse model, 8-week efficacy and safety study, alone and with prednisolone
From the text: Mice were fed with the ethanol diet for four weeks, followed by 4 weeks of intervention (8 weeks total treatment).
Livers were collected at the end-point from all mice and weighed. Liver samples were processed for histology to assess steatosis, inflammatory infiltrates and fibrosis. Briefly, liver tissue was fixed in 4% paraformaldehyde and paraffin-embedded, sectioned into 5 m thickness, and stained with hematoxylin-eosin (H&E), Oil-Red O staining, and Masson's trichrome staining.
Safety testing: The safety of indeglitazar treatment was assessed by body weight measurements and full necropsy at endpoint. Mice were terminated from the experiment by isoflurane anesthesia and blood was collected by a cardiac bleed into EDTA-treated tubes, and then centrifuged to obtain plasma to conduct clinical chemistry including full liver and renal toxicology panel. A portion of the liver was analyzed for liver triglycerides and cholesterol levels by biochemical assays. […] Hearts were weighted and fixed in 10% NBF, paraffin embedded, and sectioned into 4-μm thick slices. H&E staining was used to investigate myocardial cell hypertrophy, and ventricle diameters by microscopy.

[2] = indeglitazar 50 mg/kg, prednisolone 10 mg/kg, vs EtOH-treated vehicle control
[3] = indeglitazar 50 mg/kg, prednisolone 10 mg/kg, vs ethanol-treated vehicle control
[4] = indeglitazar 50 mg/kg, prednisolone 10 mg/kg, vs vehicle+EtOH
[5] = indeglitazar 50 mg/kg/day, prednisolone 10 mg/kg/day, vs ethanol-treated vehicle control

vitamin E
improvement of NASH, share of people treated (NASH): about half

CC(=O)CCCCn1c(=O)c2c(ncn2C)n(C)c1=O [pentoxifylline]
overall survival and liver damage in AH patients (alcoholic hepatitis): failed to improve overall survival or to decrease liver damage

C[C@]12C=CC(=O)C=C1CC[C@@H]1[C@@H]2[C@@H](O)C[C@@]2(C)[C@H]1CC[C@]2(O)C(=O)CO [Prednisolone, prednisolone, reference compound]
liver histopathology: steatosis, hepatocellular karyomegaly, and ballooning ([1]; indeglitazar 50 mg/kg, prednisolone 10 mg/kg, data not shown): no significant effect | effect on liver hydroxyproline [1, 2]: no significant effect | effect on plasma adiponectin [1, 2]: no significant effect | effect on ALT [1, 3]: no significant effect | effect on AST [1, 3]: no significant effect | effect on total bilirubin [1, 3]: increased | decrease of plasma TGFβ [1, 4]: 56% | increase of adiponectin [1, 4]: +3.4% | effect on body weight [1, 5]: Neither EtOH (vs no EtOH vehicle control), indeglitazar, or prednisolone had a significant effect | effect on heart weight (actual) [1, 5]: Neither EtOH (vs no EtOH vehicle control), indeglitazar, or prednisolone had a significant effect | effect on overall survival ([1]; indeglitazar 50 mg/kg/day, prednisolone 10 mg/kg/day, vs ethanol-treated vehicle control, male and female mice): no significant effect | effect on liver triglycerides ([1]; prednisolone 10 mg/kg, vs vehicle+EtOH): no significant effect | increase of plasma TNF-α ([1]; prednisolone 10 mg/kg, vs vehicle+EtOH, P<0.0001): 123% | change of hydroxyproline (signed) ([1]; prednisolone 10 mg/kg, vs vehicle+EtOH, P>0.05): −7%
